# Measured values published in US20020137929A1, “1 - (3-heterocyclylphenyl) isothiourea, -isourea, -guanidine and -amidine herbicidal agents” (Intellectual Property Department, BASF Aktiengesellschaft, priority 1998, published 2002).
# Columns and labels:
# CASOB (Sicklepod) = assay: Postemergence herbicidal evaluation; format: in vivo, Cassia obtusifolia
# Summary of the method: (§1)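 Seedlings grown about two weeks were sprayed at 40 psi with compound dispersed in 50/50 acetone/water plus 0.5% TWEEN 20, at about 0.0156 to 0.500 kg/ha. Plants were kept in the greenhouse and scored 4–5 weeks later on a 0–9 visual scale against untreated controls.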
# [1] = test system: CHEAL (Lambsquarters, Common); assay: Postemergence herbicidal evaluation; format: in vivo, Chenopodium album
# Summary of the method: as §1
# GALAP (Galium) = assay: Postemergence herbicidal evaluation; format: in vivo, Galium aparine
# Summary of the method: as §1
# ORYSAT (Rice, Tebonnet) [2] = assay: Postemergence herbicidal evaluation; format: in vivo, Oryza sativa, (L.) Tebonnet
# Summary of the method: as §1
# ZEAMX (Corn, Field) = assay: Postemergence herbicidal evaluation; format: in vivo, Zea mays
# Summary of the method: as §1
# AMBEL (Ragweed, Common) = assay: Preemergence herbicidal evaluation; format: in vivo, Ambrosia artemisifolia; settings: rated 4-5 weeks after treatment
# Summary of the method: (§2)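 Sown cups got a single aqueous acetone spray of test compound (roughly 0.0156–0.500 kg/ha) before seedlings emerged. Evaluation, 4–5 weeks on, used a 0–9 visual scale covering plant stand, vigor, size, malformation, chlorosis and general appearance compared with controls.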
# SETVI (Foxtail, Green) = assay: Preemergence herbicidal evaluation; format: in vivo, Setaria viridis; settings: rated 4-5 weeks after treatment
# Summary of the method: as §2
# [3] = test system: GLXMAW (Soybean, Williams); assay: Preemergence herbicidal evaluation; format: in vivo, Glycine max, (L.) Merr. cv Williams; settings: rated 4-5 weeks after treatment
# Summary of the method: as §2
# ORYSAT (Rice, Tebonnet) [4] = assay: Preemergence herbicidal evaluation; format: in vivo, Oryza sativa, (L.) Tebonnet; settings: rated 4-5 weeks after treatment
# Summary of the method: as §2
# CYPSE (Flatsedge) [5] = assay: Preemergence weed control under flooded paddy conditions; format: in vivo, Cyperus serotinus; settings: rated 3-4 weeks after treatment
# Summary of the method: (§3)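 Visual injury scored 0-9 against control three to four weeks post-treatment, greenhouse-grown. Application: acetone/water (50/50) solutions dosed directly into flood water (1.5-3 cm over silt loam, planted top 0.5 cm), roughly 0.0313 to 0.500 kg/ha active ingredient.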
# MOOVA (Monochoria) = assay: as above; format: in vivo, Monochoria vaginalis; settings: rated 3-4 weeks after treatment
# Summary of the method: as §3
# CYPIR (Rice Flatsedge) = assay: Postemergence weed control under flooded paddy conditions; format: in vivo, Cyperus iria; settings: postemergence weeds, 3-4 weeks after treatment
# Summary of the method: (§4)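 Injury ratings (0–9 scale covering stand, vigor, malformation, size, chlorosis and overall appearance versus control) were made three to four weeks after treatment. Test material, about 0.0313 to 0.500 kg/ha a.i. in 50/50 v/v aqueous/acetone, was added to flood water 1.5 to 3 cm deep over 3 to 5 cm weeds and 1.5 to 2.5 leaf rice.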
# CYPSE (Flatsedge) [6] = assay: as above; format: in vivo, Cyperus serotinus; settings: postemergence weeds, 3-4 weeks after treatment
# Summary of the method: as §4
# [7] = test system: SAGPY (Arrowhead (Pygmaea)); assay: as above; format: in vivo, Sagittaria pygmaea; settings: postemergence weeds, 3-4 weeks after treatment
# Summary of the method: as §4
structure (smiles),measurement,setting,value
"CCOC(=O)CN1C(=O)C(CC(=O)OC)S/C1=N/c1cc(-n2c(=O)cc(C(F)(F)F)n(C)c2=O)c(F)cc1Cl (centres unmarked) [Compound 54, 2-{{2-Chloro-5-[3,6-dihydro-3-methyl-2,6-dioxo-4-(trifluoromethyl)-1(2H)-pyrimidinyl]-4-fluorophenyl}imino}-4-oxo-3,5-thiazolidinediacetic acid, 3-ethyl methyl ester]",Postemergence herbicidal rating CASOB,CASOB (Sicklepod); Rate 0.0158 kg/ha,5.0
same,Postemergence herbicidal rating CASOB,CASOB (Sicklepod); Rate 0.0315 kg/ha,6.0
same,Postemergence herbicidal rating CASOB,CASOB (Sicklepod); Rate 0.0630 kg/ha,9.0
same,Postemergence herbicidal rating CHEAL,[1]; Rate 0.0158 kg/ha,9.0
same,Postemergence herbicidal rating CHEAL,[1]; Rate 0.0315 kg/ha,9.0
same,Postemergence herbicidal rating CHEAL,[1]; Rate 0.0630 kg/ha,9.0
same,Postemergence herbicidal rating GALAP,GALAP (Galium); Rate 0.0158 kg/ha,6.0
same,Postemergence herbicidal rating GALAP,GALAP (Galium); Rate 0.0315 kg/ha,9.0
same,Postemergence herbicidal rating GALAP,GALAP (Galium); Rate 0.0630 kg/ha,9.0
same,Postemergence herbicidal rating ORYSAT,"ORYSAT (Rice, Tebonnet) [2]; Rate 0.0158 kg/ha",3.0
same,Postemergence herbicidal rating ORYSAT,"ORYSAT (Rice, Tebonnet) [2]; Rate 0.0315 kg/ha",3.0
same,Postemergence herbicidal rating ORYSAT,"ORYSAT (Rice, Tebonnet) [2]; Rate 0.0630 kg/ha",6.5
same,Postemergence herbicidal rating ZEAMX,"ZEAMX (Corn, Field); Rate 0.0158 kg/ha",7.5
same,Postemergence herbicidal rating ZEAMX,"ZEAMX (Corn, Field); Rate 0.0315 kg/ha",8.0
same,Postemergence herbicidal rating ZEAMX,"ZEAMX (Corn, Field); Rate 0.0630 kg/ha",9.0
same,Preemergence herbicidal rating AMBEL,"AMBEL (Ragweed, Common); rate 0.0156 kg/ha",0.0
same,Preemergence herbicidal rating AMBEL,"AMBEL (Ragweed, Common); rate 0.0313 kg/ha",0.5
same,Preemergence herbicidal rating AMBEL,"AMBEL (Ragweed, Common); rate 0.0625 kg/ha",8.0
same,Preemergence herbicidal rating AMBEL,"AMBEL (Ragweed, Common); rate 0.1250 kg/ha",9.0
same,Preemergence herbicidal rating AMBEL,"AMBEL (Ragweed, Common); rate 0.2500 kg/ha",9.0
same,Preemergence herbicidal rating AMBEL,"AMBEL (Ragweed, Common); rate 0.5000 kg/ha",9.0
same,Preemergence herbicidal rating SETVI,"SETVI (Foxtail, Green); rate 0.0156 kg/ha",1.0
same,Preemergence herbicidal rating SETVI,"SETVI (Foxtail, Green); rate 0.0313 kg/ha",2.0
same,Preemergence herbicidal rating SETVI,"SETVI (Foxtail, Green); rate 0.0625 kg/ha",3.5
same,Preemergence herbicidal rating SETVI,"SETVI (Foxtail, Green); rate 0.1250 kg/ha",7.0
same,Preemergence herbicidal rating SETVI,"SETVI (Foxtail, Green); rate 0.2500 kg/ha",9.0
same,Preemergence herbicidal rating SETVI,"SETVI (Foxtail, Green); rate 0.5000 kg/ha",9.0
same,Preemergence herbicidal rating GLXMAW,[3]; rate 0.0156 kg/ha,0.0
same,Preemergence herbicidal rating GLXMAW,[3]; rate 0.0313 kg/ha,0.5
same,Preemergence herbicidal rating GLXMAW,[3]; rate 0.0625 kg/ha,1.5
same,Preemergence herbicidal rating GLXMAW,[3]; rate 0.1250 kg/ha,3.0
same,Preemergence herbicidal rating GLXMAW,[3]; rate 0.2500 kg/ha,7.5
same,Preemergence herbicidal rating GLXMAW,[3]; rate 0.5000 kg/ha,9.0
same,Preemergence herbicidal rating ORYSAT,"ORYSAT (Rice, Tebonnet) [4]; rate 0.0156 kg/ha",0.0
same,Preemergence herbicidal rating ORYSAT,"ORYSAT (Rice, Tebonnet) [4]; rate 0.0313 kg/ha",0.0
same,Preemergence herbicidal rating ORYSAT,"ORYSAT (Rice, Tebonnet) [4]; rate 0.0625 kg/ha",1.0
same,Preemergence herbicidal rating ORYSAT,"ORYSAT (Rice, Tebonnet) [4]; rate 0.1250 kg/ha",2.0
same,Preemergence herbicidal rating ORYSAT,"ORYSAT (Rice, Tebonnet) [4]; rate 0.2500 kg/ha",4.5
same,Preemergence herbicidal rating ORYSAT,"ORYSAT (Rice, Tebonnet) [4]; rate 0.5000 kg/ha",6.0
same,Herbicidal rating CYPSE,CYPSE (Flatsedge) [5]; 0.0313 kg/ha,0.0
same,Herbicidal rating CYPSE,CYPSE (Flatsedge) [5]; 0.0625 kg/ha,0.0
same,Herbicidal rating CYPSE,CYPSE (Flatsedge) [5]; 0.1250 kg/ha,0.0
same,Herbicidal rating CYPSE,CYPSE (Flatsedge) [5]; 0.2500 kg/ha,4.0
same,Herbicidal rating MOOVA,MOOVA (Monochoria); 0.0313 kg/ha,0.0
same,Herbicidal rating MOOVA,MOOVA (Monochoria); 0.0625 kg/ha,0.0
same,Herbicidal rating MOOVA,MOOVA (Monochoria); 0.1250 kg/ha,6.0
same,Herbicidal rating MOOVA,MOOVA (Monochoria); 0.2500 kg/ha,6.0
same,Herbicidal rating CYPIR,CYPIR (Rice Flatsedge); rate 0.0313 kg/ha,0.0
same,Herbicidal rating CYPIR,CYPIR (Rice Flatsedge); rate 0.0625 kg/ha,4.0
same,Herbicidal rating CYPIR,CYPIR (Rice Flatsedge); rate 0.1250 kg/ha,4.0
same,Herbicidal rating CYPIR,CYPIR (Rice Flatsedge); rate 0.2500 kg/ha,4.0
same,Herbicidal rating CYPSE,CYPSE (Flatsedge) [6]; rate 0.0313 kg/ha,0.0
same,Herbicidal rating CYPSE,CYPSE (Flatsedge) [6]; rate 0.0625 kg/ha,0.0
same,Herbicidal rating CYPSE,CYPSE (Flatsedge) [6]; rate 0.1250 kg/ha,0.0
same,Herbicidal rating CYPSE,CYPSE (Flatsedge) [6]; rate 0.2500 kg/ha,4.0
same,Herbicidal rating SAGPY,[7]; rate 0.0313 kg/ha,0.0
same,Herbicidal rating SAGPY,[7]; rate 0.0625 kg/ha,0.0
same,Herbicidal rating SAGPY,[7]; rate 0.1250 kg/ha,0.0
same,Herbicidal rating SAGPY,[7]; rate 0.2500 kg/ha,2.0
